Laboratory results taken from ChEMBL document CHEMBL4507260 (2021).

Legend:
Conditions in all cases: Compound concentration 1000.0 nM
[1] = target: Serine/threonine-protein kinase Nek1 (Homo sapiens) (UniProt Q96PY6)
[2] = target: MAP/microtubule affinity-regulating kinase 4 (Homo sapiens) (UniProt Q96L34)
[3] = target: Serine/threonine-protein kinase pim-2 (Homo sapiens) (UniProt Q9P1W9)
[4] = target: Interleukin-1 receptor-associated kinase 3 (Homo sapiens) (UniProt Q9Y616)
[5] = target: Tyrosine-protein kinase JAK1 (Homo sapiens) (UniProt P23458)
[6] = target: Dual specificity tyrosine-phosphorylation-regulated kinase 1A (Homo sapiens) (UniProt Q13627)
[7] = tested on: Phosphatidylinositol 4,5-bisphosphate 3-kinase catalytic subunit alpha isoform (Homo sapiens), P42336 [E545K]
[8] = target: MAP/microtubule affinity-regulating kinase 3 (Homo sapiens) (UniProt P27448)
[9] = target: Serine/threonine-protein kinase D1 (Homo sapiens) (UniProt Q15139)
[10] = target: Mitotic checkpoint serine/threonine-protein kinase BUB1 (Homo sapiens) (UniProt O43683)
[11] = target: Ephrin type-A receptor 6 (Homo sapiens) (UniProt Q9UF33)
[12] = target: Casein kinase I isoform gamma-3 (Homo sapiens) (UniProt Q9Y6M4)
[13] = tested on: Phosphatidylinositol 4,5-bisphosphate 3-kinase catalytic subunit alpha isoform (Homo sapiens), P42336 [Q546K]
[14] = tested on: Leucine-rich repeat serine/threonine-protein kinase 2 (Homo sapiens), Q5S007 [G2019S]
[15] = target: Receptor tyrosine-protein kinase erbB-4 (Homo sapiens) (UniProt Q15303)
[16] = target: Serine/threonine-protein kinase 38-like (Homo sapiens) (UniProt Q9Y2H1)
[17] = target: Mast/stem cell growth factor receptor Kit (Homo sapiens) (UniProt P10721)
[18] = target: Tyrosine-protein kinase CSK (Homo sapiens) (UniProt P41240)
[19] = target: cAMP-dependent protein kinase catalytic subunit beta (Homo sapiens) (UniProt P22694)
[20] = target: Ephrin type-A receptor 8 (Homo sapiens) (UniProt P29322)
[21] = target: Receptor-interacting serine/threonine-protein kinase 1 (Homo sapiens) (UniProt Q13546)
[22] = target: Peripheral plasma membrane protein CASK (Homo sapiens) (UniProt O14936)
[23] = target: Tyrosine-protein kinase Tec (Homo sapiens) (UniProt P42680)
[24] = target: Receptor-type tyrosine-protein kinase FLT3 (Homo sapiens) (UniProt P36888)
[25] = tested on: Phosphatidylinositol 4,5-bisphosphate 3-kinase catalytic subunit alpha isoform (Homo sapiens), P42336 [M1043I]
[26] = target: Serine/threonine-protein kinase 17B (Homo sapiens) (UniProt O94768)
[27] = target: Dual specificity protein kinase TTK (Homo sapiens) (UniProt P33981)
[28] = target: Vascular endothelial growth factor receptor 1 (Homo sapiens) (UniProt P17948)
[29] = target: Receptor-interacting serine/threonine-protein kinase 2 (Homo sapiens) (UniProt O43353)
[30] = target: Ribosomal protein S6 kinase alpha-5 (Homo sapiens) (UniProt O75582)
[31] = target: Calcium/calmodulin-dependent protein kinase kinase 1 (Homo sapiens) (UniProt Q8N5S9)
[32] = target: Phosphatidylinositol 4,5-bisphosphate 3-kinase catalytic subunit alpha isoform (Homo sapiens) (UniProt P42336)
[33] = target: Rho-associated protein kinase 1 (Homo sapiens) (UniProt Q13464)
[34] = target: Atypical kinase COQ8A, mitochondrial (Homo sapiens) (UniProt Q8NI60)
[35] = target: Casein kinase I isoform gamma-1 (Homo sapiens) (UniProt Q9HCP0)
[36] = target: Tyrosine-protein kinase JAK2 (Homo sapiens) (UniProt O60674)
[37] = target: Serine/threonine-protein kinase 32C (Homo sapiens) (UniProt Q86UX6)
[38] = target: Cyclin-dependent kinase 7 (Homo sapiens) (UniProt P50613)
[39] = target: Protein kinase C epsilon type (Homo sapiens) (UniProt Q02156)
[40] = target: Mitogen-activated protein kinase 12 (Homo sapiens) (UniProt P53778)
[41] = target: Tyrosine-protein kinase Yes (Homo sapiens) (UniProt P07947)
[42] = target: Epidermal growth factor receptor (Homo sapiens) (UniProt P00533)
[43] = target: Mitogen-activated protein kinase kinase kinase 7 (Homo sapiens) (UniProt O43318)
[44] = target: Bone morphogenetic protein receptor type-2 (Homo sapiens) (UniProt Q13873)
[45] = target: Serine/threonine-protein kinase Nek3 (Homo sapiens) (UniProt P51956)
Sequence of Serine/threonine-protein kinase Nek3 (Homo sapiens) (P51956 whole entry): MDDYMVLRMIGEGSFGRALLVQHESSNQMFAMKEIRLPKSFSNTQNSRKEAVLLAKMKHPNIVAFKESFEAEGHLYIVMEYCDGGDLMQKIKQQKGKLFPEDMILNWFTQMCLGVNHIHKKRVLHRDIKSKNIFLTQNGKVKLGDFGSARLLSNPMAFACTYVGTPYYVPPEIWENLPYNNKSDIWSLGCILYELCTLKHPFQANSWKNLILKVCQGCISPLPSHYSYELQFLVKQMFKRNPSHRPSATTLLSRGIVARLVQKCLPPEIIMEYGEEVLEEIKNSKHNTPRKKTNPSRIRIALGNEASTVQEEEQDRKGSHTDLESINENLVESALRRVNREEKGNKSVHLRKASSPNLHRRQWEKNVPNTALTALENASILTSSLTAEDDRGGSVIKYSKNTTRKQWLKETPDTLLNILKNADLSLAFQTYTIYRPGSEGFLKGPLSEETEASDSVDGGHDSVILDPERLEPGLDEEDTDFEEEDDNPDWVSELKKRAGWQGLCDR

Sequence of Tyrosine-protein kinase JAK1 (Homo sapiens) (P23458 whole entry): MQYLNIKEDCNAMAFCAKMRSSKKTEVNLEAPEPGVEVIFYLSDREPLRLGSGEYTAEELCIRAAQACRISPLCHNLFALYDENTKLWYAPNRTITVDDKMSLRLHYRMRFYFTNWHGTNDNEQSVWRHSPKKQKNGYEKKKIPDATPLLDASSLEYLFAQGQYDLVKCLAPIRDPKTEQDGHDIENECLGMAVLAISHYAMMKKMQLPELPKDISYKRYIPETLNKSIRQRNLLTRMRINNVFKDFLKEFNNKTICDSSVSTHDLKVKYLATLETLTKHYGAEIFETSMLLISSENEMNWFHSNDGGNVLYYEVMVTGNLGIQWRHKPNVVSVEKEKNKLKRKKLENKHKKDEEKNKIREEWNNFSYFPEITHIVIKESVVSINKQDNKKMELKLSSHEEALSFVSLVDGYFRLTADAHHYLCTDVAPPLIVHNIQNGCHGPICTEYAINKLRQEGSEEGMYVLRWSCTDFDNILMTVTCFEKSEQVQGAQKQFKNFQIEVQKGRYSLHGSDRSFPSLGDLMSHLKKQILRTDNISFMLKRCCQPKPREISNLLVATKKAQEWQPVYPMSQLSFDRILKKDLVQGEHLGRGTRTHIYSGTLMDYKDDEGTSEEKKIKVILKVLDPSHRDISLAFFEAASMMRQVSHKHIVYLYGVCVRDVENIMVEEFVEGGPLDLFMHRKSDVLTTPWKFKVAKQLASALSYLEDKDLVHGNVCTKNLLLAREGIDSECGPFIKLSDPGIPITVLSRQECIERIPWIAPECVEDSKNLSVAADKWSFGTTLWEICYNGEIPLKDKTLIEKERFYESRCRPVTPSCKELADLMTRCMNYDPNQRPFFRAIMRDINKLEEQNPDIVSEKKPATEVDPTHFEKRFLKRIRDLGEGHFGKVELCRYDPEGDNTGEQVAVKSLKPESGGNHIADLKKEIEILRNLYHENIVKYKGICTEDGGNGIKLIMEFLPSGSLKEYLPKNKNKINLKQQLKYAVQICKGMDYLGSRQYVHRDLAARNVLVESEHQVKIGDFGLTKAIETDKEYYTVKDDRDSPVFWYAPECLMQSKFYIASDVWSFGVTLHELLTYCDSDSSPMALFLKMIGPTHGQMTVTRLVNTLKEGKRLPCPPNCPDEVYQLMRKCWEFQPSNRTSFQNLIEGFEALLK
Sequence of Rho-associated protein kinase 1 (Homo sapiens) (Q13464 2-1354 limits assumed): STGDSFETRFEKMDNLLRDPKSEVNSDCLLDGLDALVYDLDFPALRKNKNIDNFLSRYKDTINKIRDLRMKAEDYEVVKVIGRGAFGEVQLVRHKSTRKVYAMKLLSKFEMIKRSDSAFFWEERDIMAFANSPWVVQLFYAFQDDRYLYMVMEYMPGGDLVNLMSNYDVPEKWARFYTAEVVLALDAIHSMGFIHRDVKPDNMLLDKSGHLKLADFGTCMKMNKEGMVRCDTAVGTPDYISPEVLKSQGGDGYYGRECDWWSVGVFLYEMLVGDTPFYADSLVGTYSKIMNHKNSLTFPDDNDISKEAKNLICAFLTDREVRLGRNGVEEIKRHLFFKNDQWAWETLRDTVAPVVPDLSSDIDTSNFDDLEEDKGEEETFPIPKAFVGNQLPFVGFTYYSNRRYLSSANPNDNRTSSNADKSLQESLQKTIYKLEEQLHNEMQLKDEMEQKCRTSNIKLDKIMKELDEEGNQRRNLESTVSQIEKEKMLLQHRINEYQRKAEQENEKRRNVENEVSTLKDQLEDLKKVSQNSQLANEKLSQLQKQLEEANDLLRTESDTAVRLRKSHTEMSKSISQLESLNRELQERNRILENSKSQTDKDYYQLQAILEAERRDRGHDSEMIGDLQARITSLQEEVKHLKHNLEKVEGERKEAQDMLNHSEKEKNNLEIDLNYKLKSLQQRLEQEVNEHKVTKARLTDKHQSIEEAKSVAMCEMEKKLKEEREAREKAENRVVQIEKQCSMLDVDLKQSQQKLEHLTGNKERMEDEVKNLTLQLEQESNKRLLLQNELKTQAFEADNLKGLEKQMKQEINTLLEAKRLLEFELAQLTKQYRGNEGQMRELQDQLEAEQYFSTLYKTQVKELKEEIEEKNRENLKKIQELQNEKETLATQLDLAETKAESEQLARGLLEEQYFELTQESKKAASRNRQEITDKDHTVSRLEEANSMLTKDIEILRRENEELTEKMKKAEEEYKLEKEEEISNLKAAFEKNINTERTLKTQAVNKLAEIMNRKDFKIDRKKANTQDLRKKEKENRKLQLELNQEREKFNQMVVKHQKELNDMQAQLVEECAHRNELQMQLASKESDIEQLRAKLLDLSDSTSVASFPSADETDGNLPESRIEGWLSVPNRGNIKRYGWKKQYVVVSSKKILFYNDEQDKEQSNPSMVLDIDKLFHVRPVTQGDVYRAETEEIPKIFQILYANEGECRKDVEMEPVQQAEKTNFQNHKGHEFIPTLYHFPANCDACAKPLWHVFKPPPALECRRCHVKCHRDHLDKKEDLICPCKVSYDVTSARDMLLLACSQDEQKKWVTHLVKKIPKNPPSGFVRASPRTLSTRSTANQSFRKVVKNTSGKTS
Sequence of Tyrosine-protein kinase Yes (Homo sapiens) (P07947 2-543 limits assumed): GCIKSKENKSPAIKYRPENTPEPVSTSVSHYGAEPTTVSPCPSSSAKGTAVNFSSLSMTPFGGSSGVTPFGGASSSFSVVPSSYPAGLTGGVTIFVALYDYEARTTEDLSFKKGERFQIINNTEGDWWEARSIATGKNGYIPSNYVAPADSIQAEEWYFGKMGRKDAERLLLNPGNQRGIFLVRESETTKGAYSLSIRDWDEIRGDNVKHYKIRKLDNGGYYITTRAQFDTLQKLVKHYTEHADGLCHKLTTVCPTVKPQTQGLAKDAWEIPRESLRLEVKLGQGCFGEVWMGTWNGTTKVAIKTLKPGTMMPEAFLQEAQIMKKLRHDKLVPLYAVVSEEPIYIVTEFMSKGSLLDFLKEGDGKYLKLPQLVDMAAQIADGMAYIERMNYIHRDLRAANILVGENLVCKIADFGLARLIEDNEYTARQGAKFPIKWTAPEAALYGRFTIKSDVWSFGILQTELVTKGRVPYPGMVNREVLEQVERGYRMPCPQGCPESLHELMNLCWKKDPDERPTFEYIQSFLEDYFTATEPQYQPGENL
Sequence of Tyrosine-protein kinase Tec (Homo sapiens) (P42680 whole entry): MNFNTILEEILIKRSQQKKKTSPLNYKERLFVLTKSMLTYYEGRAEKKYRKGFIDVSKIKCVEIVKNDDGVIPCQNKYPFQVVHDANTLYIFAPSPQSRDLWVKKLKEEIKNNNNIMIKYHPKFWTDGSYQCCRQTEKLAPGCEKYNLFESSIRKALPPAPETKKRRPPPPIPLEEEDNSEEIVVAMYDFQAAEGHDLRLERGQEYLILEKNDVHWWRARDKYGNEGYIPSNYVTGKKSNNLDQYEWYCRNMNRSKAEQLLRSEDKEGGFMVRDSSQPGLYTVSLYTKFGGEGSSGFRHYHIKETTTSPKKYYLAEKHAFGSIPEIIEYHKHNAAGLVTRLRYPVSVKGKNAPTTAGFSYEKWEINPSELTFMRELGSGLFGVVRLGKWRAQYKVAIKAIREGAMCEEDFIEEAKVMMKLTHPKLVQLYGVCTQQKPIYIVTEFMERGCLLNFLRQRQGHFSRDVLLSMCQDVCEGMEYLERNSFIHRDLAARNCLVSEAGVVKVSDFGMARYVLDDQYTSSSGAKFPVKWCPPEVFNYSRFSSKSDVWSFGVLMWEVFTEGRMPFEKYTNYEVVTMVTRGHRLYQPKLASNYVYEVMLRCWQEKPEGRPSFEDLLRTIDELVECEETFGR
Sequence of MAP/microtubule affinity-regulating kinase 3 (Homo sapiens) (P27448 whole entry, looked up): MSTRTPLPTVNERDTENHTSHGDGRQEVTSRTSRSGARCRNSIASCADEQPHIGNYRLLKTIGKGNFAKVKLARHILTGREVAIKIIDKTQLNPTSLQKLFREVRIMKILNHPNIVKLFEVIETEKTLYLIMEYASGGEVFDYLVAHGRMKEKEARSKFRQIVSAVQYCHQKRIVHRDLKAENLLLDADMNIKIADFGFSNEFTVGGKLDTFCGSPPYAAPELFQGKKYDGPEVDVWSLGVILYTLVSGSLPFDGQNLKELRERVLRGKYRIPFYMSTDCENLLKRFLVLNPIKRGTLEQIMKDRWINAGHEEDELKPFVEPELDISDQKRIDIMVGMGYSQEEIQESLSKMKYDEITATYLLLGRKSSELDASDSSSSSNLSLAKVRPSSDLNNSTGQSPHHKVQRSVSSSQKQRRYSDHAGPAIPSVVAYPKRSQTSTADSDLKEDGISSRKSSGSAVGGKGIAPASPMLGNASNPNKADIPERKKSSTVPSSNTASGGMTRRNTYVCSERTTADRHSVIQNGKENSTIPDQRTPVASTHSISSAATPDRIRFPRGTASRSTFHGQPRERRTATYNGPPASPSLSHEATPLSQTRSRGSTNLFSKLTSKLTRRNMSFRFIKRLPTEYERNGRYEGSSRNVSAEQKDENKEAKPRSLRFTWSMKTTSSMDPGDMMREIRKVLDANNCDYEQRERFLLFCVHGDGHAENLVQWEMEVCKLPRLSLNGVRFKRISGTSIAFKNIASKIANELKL

Work on `CSc1cccnc1N1CCN(Cc2nc3ccccc3[nH]2)CC1` [A-769] yielded a residual activity [1] of 100%, a residual activity [2] of 100% and a residual activity [3] of 96%. It also gave a residual activity [4] of 94%, a residual activity [5] of 100% and a residual activity [6] of 79%. The residual activity [7] was 74%, the residual activity [8] was 98% and the residual activity [9] was 100%. The residual activity [10] was 90%, the residual activity [11] was 100% and the residual activity [12] was 86%. It also gave a residual activity [13] of 84%, a residual activity [14] of 92% and a residual activity [15] of 83%. For the same molecule, the residual activity [16] was 100%, the residual activity [17] was 100% and the residual activity [18] was 100%. It also gave a residual activity [19] of 100%, a residual activity [20] of 95% and a residual activity [21] of 100%. The residual activity [22] was 100%, the residual activity [23] was 90% and the residual activity [24] was 91%. The residual activity [25] was 94%, the residual activity [26] was 100% and the residual activity [27] was 98%. For the same molecule, the residual activity [28] was 100%, the residual activity [29] was 100% and the residual activity [30] was 100%. The residual activity [31] was 100%, the residual activity [32] was 69% and the residual activity [33] was 93%. For the same molecule, the residual activity [34] was 100%, the residual activity [35] was 100% and the residual activity [36] was 65%. The residual activity [37] was 71%, the residual activity [38] was 61% and the residual activity [39] was 77%. The residual activity [40] was 98%, the residual activity [41] was 100% and the residual activity [42] was 100%. The residual activity [43] was 74%, the residual activity [44] was 80% and the residual activity [45] was 88%.

`c1ccc(N2CCN(Cc3nc4ccccc4[nH]3)CC2)nc1` [ABT-724] gave a residual activity [1] of 100%, a residual activity [2] of 100% and a residual activity [3] of 85%. For the same molecule, the residual activity [4] was 100%, the residual activity [5] was 91% and the residual activity [6] was 100%. For the same molecule, the residual activity [7] was 59%, the residual activity [8] was 100% and the residual activity [9] was 95%. For the same molecule, the residual activity [10] was 100%, the residual activity [11] was 100% and the residual activity [12] was 100%. It also gave a residual activity [13] of 100%, a residual activity [14] of 100% and a residual activity [15] of 95%. It also gave a residual activity [16] of 72%, a residual activity [17] of 100% and a residual activity [18] of 100%. It also gave a residual activity [19] of 93%, a residual activity [20] of 100% and a residual activity [21] of 100%. It also gave a residual activity [22] of 97%, a residual activity [23] of 100% and a residual activity [24] of 100%. It also gave a residual activity [25] of 87%, a residual activity [26] of 100% and a residual activity [27] of 100%. For the same molecule, the residual activity [28] was 100%, the residual activity [29] was 100% and the residual activity [30] was 85%. It also gave a residual activity [31] of 98%, a residual activity [32] of 100% and a residual activity [33] of 100%. For the same molecule, the residual activity [34] was 98%, the residual activity [35] was 100% and the residual activity [36] was 100%. The residual activity [37] was 100%, the residual activity [38] was 48% and the residual activity [39] was 100%. For the same molecule, the residual activity [40] was 74%, the residual activity [41] was 100% and the residual activity [42] was 99%. It also gave a residual activity [43] of 52%, a residual activity [44] of 100% and a residual activity [45] of 100%.
